Data taken from US20120190723A1, “VIRAL MODULATORS AND PROCESSES THEREOF” (priority 2010, published 2012).
Entries after “also recorded” stand apart in the source; their conditions may differ. Structures can show the parent of a compound that is named as a salt. Where two headings read alike, the source gives them in different places. Starred links: 1 amine or outer side, 2 acyl side, 3 side chain; linkers in the order of their positions; H or OH if unused. Positions of bridges follow the written chain, without caps; N, C: chain ends. Non-standard residues stand in square brackets, D forms with d. Residues, ends and D or L forms follow the SMILES beside them. Chains are numbered I, II in the order given. Actinocin(9to1) = Cc1c2oc3c(C)ccc(C(=O)[*:1])c3nc-2c(C(=O)[*:2])c(N)c1=O; NMeV = CN[C@H](C(=O)O)C(C)C; Sar = CNCC(=O)O

Columns and labels:
VEEV TC-83 [1] = assay: microbe, parasite or virus in culture; type: cell-based, Venezuelan Equine Encephalitis Virus; settings: for effect on VEEV induced CPE: 1 μM, 48 hours post infection
[2] = test system: HIV-1 LTR Tat dependent transcription; assay: cells; settings: Human immunodeficiency virus 1, TZM-bl, read-out: % Inhibition at 1 μM
VEEV TC-83 [3] = type: cell-based, Venezuelan Equine Encephalitis Virus; settings: 1 μM
[4] = test system: HIV-1 LTR Tat dependent transcription; settings: TZM-bl cells transfected with Tat, compared to the DMSO control
HIV-1 dual tropic 89.6 [5] = assay: HIV-1 89.6 replication in primary monocyte/macrophages (RT assay); type: cell-based; settings: Human immunodeficiency virus 1, Primary macrophage, 168 h; 89.6 infection, RT day 7
HIV-1 dual tropic 89.6 [6] = assay: HIV-1 89.6 replication in U87MG cells (RT assay); type: cell-based; settings: Human immunodeficiency virus 1, U-87 MG, 168 h; 89.6 infection, RT day 7
[7] = test system: monocyte/macrophage from two healthy donors and U87MG; assay: MTT toxicity in monocyte/macrophages and U87MG; type: cell-based; settings: primary cells or cell line
[8] = test system: HIV-rtTA KWK (Tat+) and KYK (Tat−) clones; assay: dox-dependent HIV-rtTA variants (KWK, KYK) in macrophages, RT assay; type: cell-based, HIV-1; settings: BIOder 50 nM, dox 1000 ng/ml, RT day 10
[9] = test system: Rat mixed hippocampal cultures exposed to Tat1-72; assay: Tat neurotoxicity in rat mixed hippocampal cultures (MTT); type: cell-based; settings: for protection against Tat mediated neurodegeneration: 1.0 and 3.0 uM, p<0.05, 500 nM Tat1-72, 18 hours; for neurotoxicity: 5.0 and 10.0 uM
Protocol: After approximately 18 hours, cell survival may be measured by MTT assay. Statistical significance may be determined by ANOVA, followed by Newman-Keuls post hoc pair-wise comparisons.
In some aspects of embodiments, rat mixed hippocampal cultures may be preincubated with BIO prior to exposure to Tat. Cell death may be analyzed approximately 18 hours after Tat exposure by MTT assay.

VEEV TC-83 [10] = assay: microbe, parasite or virus in culture; type: cell-based; settings: Venezuelan equine encephalitis virus, U-87 MG, read-out: IC50, VEEV replication
survivin, BID = type: cell-based
VEEV TC-83 [11] = type: in vivo, C3H/HeN mice; settings: for survival rate: SQ days −1, 1, 3, 5, BIO 50 mg/kg, BIOder 20 mg/kg, 14 days, vehicle 10%; for survival differential: vs vehicle control
U87MG astrocytes = settings: for cellular viability of BIO analogs: 1 μM
[12] = in vivo
in vitro = settings: human
GSK-3β [13] = target: T1, GSK-3β (Homo sapiens, UniProt P49841); assay: GSK-3β immunoprecipitation in vitro kinase assay (U937 cells)
Target sequence in this assay (P49841 whole entry): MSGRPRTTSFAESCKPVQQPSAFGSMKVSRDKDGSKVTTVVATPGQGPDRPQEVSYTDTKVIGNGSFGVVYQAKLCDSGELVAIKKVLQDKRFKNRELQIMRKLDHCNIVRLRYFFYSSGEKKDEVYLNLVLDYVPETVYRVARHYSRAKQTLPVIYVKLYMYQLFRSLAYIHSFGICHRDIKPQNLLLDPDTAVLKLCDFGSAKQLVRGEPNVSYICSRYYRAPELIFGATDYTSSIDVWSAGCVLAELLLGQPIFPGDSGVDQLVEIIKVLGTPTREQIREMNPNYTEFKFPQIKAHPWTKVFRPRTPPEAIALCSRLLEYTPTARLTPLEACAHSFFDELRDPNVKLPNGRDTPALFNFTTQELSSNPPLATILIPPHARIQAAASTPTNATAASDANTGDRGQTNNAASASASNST

GSK-3β [14] = target: T1, GSK-3β; type: biochemical; design: Cells may be lysed and immunoprecipitated with control IgG and/or GSK-3β antibody; endogenous in cells
Target sequence in this assay (P49841 whole entry, looked up): as the sequence (P49841 whole entry) above

In the case of COc1ccc(-c2cc(C(=O)N/N=C3/C(=O)Nc4ccc(Br)cc43)[nH]n2)cc1 [Compound 28, N′-(5-bromo-2-oxo-1,2-dihydro-3H-indol-3-ylidene)-3-(4-methoxyphenyl)-1H-pyrazole-5-carbohydrazide], the “effect on VEEV induced CPE” value (VEEV TC-83 [1]) is reported as “inhibit CPE”.

Molecule Cc1c2oc3c(C)ccc(C(=O)N[C@@H]4C(=O)N[C@H](C(C)C)C(=O)N5CCC[C@H]5C(=O)N(C)CC(=O)N(C)[C@@H](C(C)C)C(=O)O[C@@H]4C)c3nc-2c(C(=O)N[C@@H]2C(=O)N[C@H](C(C)C)C(=O)N3CCC[C@H]3C(=O)N(C)CC(=O)N(C)[C@@H](C(C)C)C(=O)O[C@@H]2C)c(N)c1=O [Dactiniomycin, Dactinomycin] (I: T[dV]P[Sar][NMeV] / II: T[dV]P[Sar][NMeV]; ester I:1-I:C, II:1-II:C; linker I:N-II:N via Actinocin(9to1)) has an inhibition at 1 µM [2] of 98%.

With Cc1ccc2c(c1Br)/C(=N/NC(=O)Nc1ccccc1)C(=O)N2 [Compound 5, 4-bromo-5-methyl-1H-indole-2,3-dione 3-(N-phenylsemicarbazone)] the “effect on VEEV induced CPE” value (VEEV TC-83 [1]) was “increase observed CPE”.

In the case of O=C1Nc2c(Br)cc(Br)cc2/C1=N/NC(=O)c1cc(-c2ccccc2)n[nH]1 [Compound 24, N′-(5,7-dibromo-2-oxo-1,2-dihydro-3H-indol-3-ylidene)-3-phenyl-1Hpyrazole-5-carbohydrazide], the “effect on VEEV induced CPE” value (VEEV TC-83 [1]) is reported as “increase observed CPE”.

For COc1cccc2c1C(=O)c1c(O)c3c(c(O)c1C2=O)C[C@@](O)(C(=O)CO)C[C@@H]3O[C@H]1C[C@H](N)[C@@H](O)[C@H](C)O1 [Epirubicin hydrochloride], the inhibition at 1 µM [2] was 17%.

With Cc1[nH]c2ccc(Br)cc2c1CC(=O)N/N=C1/C(=O)Nc2ccccc21 [Compound 21, 2-(5-bromo-2-methyl-1H-indol-3-yl)-N′-(2-oxo-1,2-dihydro-3H-indol-3-ylidene)acetohydrazide] the “effect on VEEV (FIG. 11)” value (VEEV TC-83 [3]) was “VEEV activators”.

For Cc1ccc2c(c1Br)/C(=N/O)C(=O)N2 [Compound 4, 4-bromo-5-methyl-1H-indole-2,3-dione 3-oxime], the “effect on VEEV (FIG. 11)” value (VEEV TC-83 [3]) was “VEEV activators”.

In the case of O=C1Nc2ccccc2/C1=C1/Nc2ccccc2/C1=N\O [Indirubin-3′-oxime], the “% Inhibition at 1 μM” value [4] is reported as 25%.

For Cc1cc2c(cc1Br)NC(=O)/C2=N/N=C1/C(=O)Nc2cc(Br)c(C)cc21 [Compound 6, 6-bromo-5-methyl-1H-indole-2,3-dione 3-[(6-bromo-5-methyl-2-oxo-1,2-dihydro-3H-indol-3-ylidene)hydrazone]], the IC50 (HIV-1 dual tropic 89.6 [5]) was ~4 nM, the IC50 (HIV-1 dual tropic 89.6 [6]) was ~0.5 nM and the “Cytotoxic concentration (MTT)” value [7] was > 10 µM. For the same molecule, the “viral replication of KWK (Tat+) and KYK (Tat−) clones” value [8] was “inhibited in the KWK (Tat+) and not KYK (Tat−) clone”, the “protection against Tat mediated neurodegeneration” value [9] was “protective effect” and the neurotoxicity [9] was “no neurotoxicity observed”. The IC50 (VEEV TC-83 [10]) was ~500 nM, the “effect on VEEV induced CPE” value (VEEV TC-83 [1]) was “inhibit CPE; also recorded: particularly strong inhibition” and the “cellular viability of VEEV infected cells” value (VEEV TC-83 [1]; 72 hours post-infection, all concentrations employed) was “relative increase in cellular viability”. For the same molecule, the IC50 (VEEV TC-83 [1]; Venezuelan equine encephalitis virus, U-87 MG, read-out: IC50 for inhibition of VEEV induced CPE) was < 100 nM, the BID expression (survivin, BID) was “relatively strong decrease” and the survivin expression (survivin, BID) was “relative increase in the expression of survivin”. For the same molecule, the survival rate (VEEV TC-83 [11]) was “approximately 50%”, the survival differential (VEEV TC-83 [11]) was “approximately 40%” and the cellular viability (U87MG astrocytes) was “no substantial effect on cellular viability”. For the same molecule, the mouse weight [12] was “substantially no treatment group showed weight loss”, the “signs of toxicity (lethargy, ruffling of coats, weight loss)” value ([12]; mouse) was “Substantially no signs of toxicity” and the CC50 (in vitro) was > 100000 nM. The IC50 (GSK-3β [13]) was ~0.03 nM, the “inhibition of GSK-3β kinase activity” value (GSK-3β [13]; at approximately 1 nM, glycogen synthase peptide 2 substrate) was “approximately 90%” and the GSK3-β kinase activity (GSK-3β [14]) was “much more relatively dramatic influence”.

For O=C1Nc2ccc(Br)cc2/C1=N\NC(=O)c1ccccc1NC(=O)c1ccccc1 [Compound 31, N-(2-{[2-(5-bromo-2-oxo-1,2-dihydro-3H-indol-3-ylidene)hydrazino]carbonyl}phenyl)benzamide], the “effect on VEEV induced CPE” value (VEEV TC-83 [1]) was “inhibit CPE”.

Work on C=C[C@H]1CN2CC[C@H]1C[C@H]2[C@H](OC(=O)OCC)c1ccnc2ccc(OC)cc12 [Quinine ethyl carbonate] yielded an inhibition at 1 µM [2] of 34%.

For O=C1NC(=O)/C(=C2/C(=O)Nc3ccc(Br)cc32)N1 [Compound 33, 5-(5-bromo-2-oxo-1,2-dihydro-3H-indol-3-ylidene)-2,4-imidazolidinedione], the “cellular viability of BIO analogs” value (U87MG astrocytes) was “decrease in cellular viability”.

In the case of O=C1Nc2ccc(Br)cc2/C1=N/NC(=O)c1ccc(Cl)cc1Cl [Compound 16, N′-(5-bromo-2-oxo-1,2-dihydro-3H-indol-3-ylidene)-2,4-dichlorobenzohydrazide], the “cellular viability of BIO analogs” value (U87MG astrocytes) is reported as “decrease in cellular viability”.

For Cc1c(Cl)ccc2c1NC(=O)/C2=C1/C(=O)Nc2ccccc21 [Compound 38, 6-chloro-7-methyl-3,3′-biindole-2,2′(1H,1′H)-dione], the “effect on VEEV (FIG. 11)” value (VEEV TC-83 [3]) was “VEEV activators”.

With Cc1ccc2c(c1Br)C(=NNc1ccccc1)C(=O)N2 [Compound 17, 4-bromo-5-methyl-1H-indole-2,3-dione 3-(phenylhydrazone)] the “effect on VEEV induced CPE” value (VEEV TC-83 [1]) was “inhibit CPE”.

In the case of Cc1cc(C(=O)N/N=C2\C(=O)Nc3ccc(Br)cc32)[nH]n1 [Compound 32, N′-(5-bromo-2-oxo-1,2-dihydro-3H-indol-3-ylidene)-3-methyl-1Hpyrazole-5-carbohydrazide], the “cellular viability of BIO analogs” value (U87MG astrocytes) is reported as “decrease in cellular viability”.

In the case of O=C1Nc2ccc(Cl)cc2/C1=C1\C(=O)Nc2ccc(Br)cc21 [Compound 34, 5-bromo-5′-chloro-3,3′-biindole-2,2′(1H,1′H)-dione], the “cellular viability of BIO analogs” value (U87MG astrocytes) is reported as “decrease in cellular viability”.

In the case of O=C1Nc2cc(Br)ccc2/C1=C1/Nc2ccccc2/C1=N\O [BIO, 6-bromoindirubin-3′-oxime, reference compound], the “protection against Tat mediated neurodegeneration” value [9] is reported as “significant neuroprotective effects”, the neurotoxicity [9] is reported as “neurotoxicity observed” and the “LD50 (neurotoxicity)” value ([9]; rat mixed hippocampal cultures) is reported as “approximately 4 uM”. The survivin expression (survivin, BID) was “relatively increase survivin expression”, the survival rate (VEEV TC-83 [11]) was ~30% and the survival differential (VEEV TC-83 [11]) was “approximately 20%”.
